Read-outs that look alike come from different tables or passages of the source.
Key:
[1] = test system: MOLT-4; experiment: NCI anticancer screening (SRB), Leukemia subpanel; type: cell-based, human; conditions: for GI%: 10.0 µM in one dose
[2] = test system: IGROV1; experiment: NCI anticancer screening (SRB), Ovarian Cancer subpanel; type: cell-based, human; conditions: for GI%: 10.0 µM in one dose
[3] = test system: SK-OV-3; experiment: as above; type: cell-based, human; conditions: for GI%: 10.0 µM in one dose
[4] = test system: TK-10; experiment: NCI anticancer screening (SRB), Renal Cancer subpanel; type: cell-based, human; conditions: for GI%: 10.0 µM in one dose
[5] = test system: UO-31; experiment: as above; type: cell-based, human; conditions: for GI%: 10.0 µM in one dose
[6] = test system: MDA-MB-468; experiment: NCI anticancer screening (SRB), Breast Cancer subpanel; type: cell-based, human; conditions: for GI%: 10.0 µM in one dose
[7] = test system: RPMI-8226; experiment: NCI anticancer screening (SRB), Leukemia subpanel; type: cell-based, human
[8] = test system: NCI-H322M; experiment: NCI anticancer screening (SRB), Non-Small Cell Lung Cancer subpanel; type: cell-based, human
[9] = test system: NCI-H522; experiment: as above; type: cell-based, human
[10] = test system: COLO 205; experiment: NCI anticancer screening (SRB), Colon Cancer subpanel; type: cell-based, human
[11] = test system: HT29; experiment: as above; type: cell-based, human
[12] = test system: SNB-75; experiment: NCI anticancer screening (SRB), CNS Cancer subpanel; type: cell-based, human
[13] = test system: UACC-257; experiment: NCI anticancer screening (SRB), Melanoma subpanel; type: cell-based, human
[14] = test system: Leukemia subpanel tumor cell lines; experiment: NCI anticancer screening, subpanel summary; type: cell-based; conditions: Leukemia, mean over subpanel cell lines
[15] = test system: NSC Lung Cancer subpanel tumor cell lines; experiment: NCI anticancer screening, subpanel summary; type: cell-based; conditions: NSC Lung Cancer, mean over subpanel cell lines
[16] = test system: Colon Cancer subpanel tumor cell lines; experiment: NCI anticancer screening, subpanel summary; type: cell-based; conditions: mean over subpanel cell lines
[17] = test system: CNS Cancer subpanel tumor cell lines; experiment: NCI anticancer screening, subpanel summary; type: cell-based; conditions: mean over subpanel cell lines
[18] = test system: Melanoma subpanel tumor cell lines; experiment: NCI anticancer screening, subpanel summary; type: cell-based; conditions: mean over subpanel cell lines
[19] = test system: Ovarian Cancer subpanel tumor cell lines; experiment: NCI anticancer screening, subpanel summary; type: cell-based; conditions: Ovarian Cancer, mean over subpanel cell lines
[20] = test system: Renal Cancer subpanel tumor cell lines; experiment: NCI anticancer screening, subpanel summary; type: cell-based; conditions: mean over subpanel cell lines
[21] = test system: Prostate Cancer subpanel tumor cell lines; experiment: NCI anticancer screening, subpanel summary; type: cell-based; conditions: mean over subpanel cell lines
[22] = test system: Breast Cancer subpanel tumor cell lines; experiment: NCI anticancer screening, subpanel summary; type: cell-based; conditions: Breast Cancer, mean over subpanel cell lines
[23] = test system: MCF-7 cells; experiment: Annexin V-FITC/PI apoptosis assay; type: cell-based, human; conditions: 24 h
[24] = test system: MCF-7 cells; experiment: Cell cycle analysis (PI flow cytometry); type: cell-based, human; conditions: 10 μM, 24 h
Description: Apoptosis is the primary mechanism by which potent chemotherapeutic agents destroy cancer cells. […] Flow cytometry measured cell growth in the G0-G1, S, and G2/M cell cycle phases.
Using the MCF-7 cell line, the cell cycle analysis was carried out like our previous investigation. A FACSCalibur flow cytometer was used to analyze the cells after they had been stained with DNA fluorochrome PI (Supplementary Materials). […]
photomultiplier voltage and for compensation setting adjustment to eliminate spectral overlap between the FL1 and the FL2 signals.
6. Cell cycle analysis
Breast carcinoma (MCF-7) cell was seeded at 2 × 10^5 cells/well density and incubated for 24 h in six-well plates. Foetal bovine serum (10%) was added, and the cells were incubated at 37 °C in an atmosphere of 5% CO2. The medium was replaced with 1% (v/v) DMSO containing 10.0 μM of […]
with 70% ethanol, rinsed with phosphate-buffered saline, and then stained with the DNA fluorochrome propidium iodide (PI) for 15 min at 37 °C. Then, samples were analyzed by flow cytometry using a FACSCalibur (Becton Dickinson). The cell cycle distributions were calculated using CellQuest software (Becton Dickinson). […]

[25] = test system: 59 human cancer cell lines; experiment: NCI anticancer screening, full panel summary
[26] = Homo sapiens, five concentrations
[27] = Homo sapiens, read-out: LC50, subpanel average

For `CS(=O)(=O)Nc1ccc(C(=O)NN=Cc2ccccc2O)cc1` [Compound 7], the GI% [1] was 50%, the GI% [2] was 25% and the GI% [3] was 42%. It also gave a GI% [4] of 21%, a GI% [5] of 64% and a GI% [6] of 24%.
`CCN(CC)c1ccc(C=NNC(=O)c2ccc(NS(C)(=O)=O)cc2)c(O)c1` [Compound 8] gave a GI% [1] of 90%, a GI50 [1, 26] of 372 nM and a GI% ([7]; 10.0 µM in one dose) of 84%. It also gave a GI50 ([7]; Homo sapiens, PRMI-8226, five concentrations) of 2720 nM, a GI% ([8]; 10.0 µM in one dose) of 75% and a GI50 [8, 26] of 258 nM. It also gave a GI% ([9]; 10.0 µM in one dose) of 88%, a GI50 [9, 26] of 360 nM and a GI% ([10]; 10.0 µM in one dose) of 94%. For the same compound, the GI50 [10, 26] was 349 nM, the GI% ([11]; 10.0 µM in one dose) was 73% and the GI50 ([11]; Homo sapiens, HT-29, five concentrations) was 495 nM. For the same compound, the GI% ([12]; 10.0 µM in one dose) was 52%, the GI50 [12, 26] was 519 nM and the GI% ([13]; 10.0 µM in one dose) was > 100%. It also gave a GI50 [13, 26] of 463 nM, a GI% [2] of 80% and a GI50 ([2]; Homo sapiens, IGROV-1, five concentrations) of 544 nM. It also gave a GI% [3] of 66%, a GI50 [3, 26] of 450 nM and a GI% [4] of 52%. It also gave a GI50 [4, 26] of 1050 nM, a GI% [5] of 87% and a GI50 [5, 26] of 346 nM. For the same compound, the GI% [6] was > 100%, the GI50 [6, 26] was 335 nM and the GI50 ([14]; Homo sapiens) was 700 nM. For the same compound, the CC50 [14, 27] was > 100000 nM, the “TGI, subpanel average” value [14] was 79880 nM and the GI50 ([15]; Homo sapiens) was 622 nM. The CC50 [15, 27] was 94900 nM, the “TGI, subpanel average” value [15] was 22080 nM and the GI50 ([16]; Homo sapiens) was 400 nM. For the same compound, the LC50 (NCI-60 lethal concentration, subpanel average) ([16]; Homo sapiens) was 80100 nM, the “TGI, subpanel average” value [16] was 30530 nM and the GI50 ([17]; Homo sapiens) was 451 nM. The CC50 [17, 27] was 86600 nM, the “TGI, subpanel average” value [17] was 14140 nM and the GI50 ([18]; Homo sapiens) was 563 nM. For the same compound, the CC50 [18, 27] was 93600 nM, the “TGI, subpanel average” value [18] was 21640 nM and the GI50 ([19]; Homo sapiens) was 1030 nM. For the same compound, the CC50 [19, 27] was 94900 nM, the GI50 [19] was 1030 nM and the “TGI, subpanel average” value [19] was 52900 nM. For the same compound, the GI50 ([20]; Homo sapiens) was 826 nM, the CC50 [20, 27] was 80600 nM and the “TGI, subpanel average” value [20] was 23370 nM. The GI50 ([21]; Homo sapiens) was 527 nM, the CC50 [21, 27] was 98000 nM and the “TGI, subpanel average” value [21] was 60800 nM. The “TGI, subpanel average” value [22] was 15220 nM, the GI50 ([22]; Homo sapiens) was 599 nM and the CC50 [22, 27] was 99800 nM. For the same compound, the Necrosis [23] was 6.08%, the “Total Apoptosis” value ([23]; annexin V-FITC/PI) was 38.16% and the “Early Apoptosis” value ([23]; lower-right quadrant) was 22.49%. The “Late Apoptosis” value ([23]; upper-right quadrant) was 9.59%, the “%G0–G1” value [24] was 51.94% and the “%G2-M” value [24] was 14.64%. The “%S” value [24] was 33.42%, the “Comment (cell cycle arrest phase)” value [24] was “Growth arrest@ S” and the GI50 ([25]; Homo sapiens, read-out: GI50 MG-MID) was 501 nM. The GI50 ([25]; Homo sapiens, read-out: GI50 range over the cell lines) was 141 to 2720 nM, the CC50 ([25]; Homo sapiens, read-out: LC50 MG-MID) was > 100000 nM and the “TGI MG-MID” value ([25]; full panel mean-graph midpoint) was 46800 nM. For the same compound, the “PCE (positive cytotoxic effect)” value ([25]; ratio of cell lines with growth inhibition > 10% to total cell lines, 10 µM single dose) was 59/59.

Reference: article PMC11728000, “Antitumor Activity and Multi-Target Mechanism of Phenolic Schiff Bases Bearing Methanesulfonamide Fragments: Cell Cycle Analysis and a Molecular Modeling Study” (International Journal of Molecular Sciences, 2024)
